Common to all, as to test: NCI tumour cell line growth inhibition, 48 h
The test system of experiment [1] is U251 CNS.
The subject of experiment [2] is IGROV1 ovarian.
The subject of experiment [3] is NCI-H226 lung.
Experiment [4] deals with MDA-N.
The subject of experiment [5] is CAKI-1 renal.
The subject of experiment [6] is MCF7 breast.
Experiment [7] relates to MDA-MB-231 breast.
The test system of experiment [8] is SF-268 CNS.
For experiment [9], the system named is RXF 393 renal.
Experiment [10] deals with A549 NSCLC.
Experiment [11] deals with SF-539 CNS.
The test system of experiment [12] is HCC-2998 colon.

Structures are written as SMILES.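 In this assay, cells in 96-well plates receive the compound at five concentrations for 48 hours. Endpoints are linearly interpolated between the surrounding concentrations. TGI: concentration producing complete growth inhibition.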 Where a SMILES comes first, the peptide text is derived from it. The star is where a group is joined. Cbz = O=C(OCc1ccccc1)*; Boc = CC(C)(C)OC(=O)*; OSu = O=C1CCC(=O)N1O*; Bn = c1ccc(C*)cc1

In the case of `CCOC(=O)CSc1nnc2cc(CN3CCCC3)c(-c3ccc(Cl)cc3)nn12`, the TGI in experiment [1], in experiment [2], in [3], in experiment [4], in experiment [5] and in experiment [6] was over 100 µM in each case. Besides, the TGI in [7], in experiment [8], in experiment [9], in experiment [10] and in experiment [11] was over 100 µM in each case.

For the compound `CC(SC(=S)N1CCOCC1)C(=O)Nc1nnc(-c2ccccc2)o1` (stereo not drawn), the TGI in [1], in [2], in experiment [3], in experiment [4], in [5] and in [6] was over 100 µM each time. Besides, the TGI in [7], in experiment [9], in experiment [10] and in experiment [11] was over 100 µM in each case.

As to `CC(C)(C)OC(=O)NC(Cc1ccc(OCc2ccccc2)cc1)C(=O)NC(CCCCNC(=O)OCc1ccccc1)C(=O)ON1C(=O)CCC1=O` (stereo not drawn) (Boc-Tyr(Bn)-Lys(Cbz)-OSu; configuration not given here), the TGI was determined as 32.2 µM in [1]; 33.1 µM in experiment [2]; 99.6 µM in [3]; 29.9 µM in experiment [4]; 44.3 µM in experiment [6]; 81.1 µM in experiment [7]. Further, the TGI was 55.3 µM in [9], 32 µM in experiment [12] and over 100 µM in experiment [10].

On to `c1cc2c(c(NC3=NCCO3)c1)CCC2`, for which the TGI in experiment [1], in experiment [2], in experiment [3], in [4], in [5] and in [6] was over 100 µM in each case. The TGI in experiment [7], in [8], in experiment [9], in experiment [10] and in experiment [11] was over 100 µM each time.

In the case of `CN(C)S(=O)(=O)/N=C/c1cccc(/C=N/S(=O)(=O)N(C)C)c1`, the TGI in [1], in [3], in experiment [4], in experiment [5], in experiment [6] and in [7] was over 100 µM throughout. In addition, the TGI in experiment [8], in [12], in experiment [10] and in experiment [11] was over 100 µM in each case.

Turning to `c1ccc(CNCCCCNCCCNCc2ccccc2)cc1`, the TGI in experiment [1] was 35.7 µM; in [2], 26.7 µM; in [3], 41.4 µM; in experiment [4], 26.3 µM; in [5], 40.3 µM; in experiment [6], over 100 µM. Besides, the TGI in experiment [7] was 33.2 µM; in experiment [8] it was 51.8 µM; in experiment [9], 32.7 µM; in experiment [12] it was 31.3 µM; in experiment [10] it was 36.2 µM.

For the compound `COC(CC1(/C=C/O[Si](C(C)C)(C(C)C)C(C)C)C(=O)N(C)c2ccccc21)OC` (stereo not drawn), the TGI in [1] was over 100 µM; in experiment [3], 90 µM; in [4], over 100 µM; in [5], over 100 µM; in experiment [6], over 100 µM; in experiment [7] it was over 100 µM. The TGI in experiment [8], in experiment [9], in experiment [12] and in [10] was over 100 µM throughout.

For the compound `O=C(O)c1cc(/C=C/c2cc(O)ccc2O)ccc1O`, the TGI in [1], in experiment [3], in experiment [4], in experiment [6], in experiment [7] and in experiment [8] was over 10 µM in each case. For the same compound, the TGI in experiment [12], in experiment [10] and in [11] was over 10 µM each time.

Take `Cc1oc2c(Cl)cc(O)c(Cl)c2c2cccc1-2`: the TGI in experiment [1] was 64.9 µM; in [2], 75.4 µM; in experiment [3], 61.6 µM; in [4], 60.3 µM; in experiment [5], over 100 µM; in experiment [6] it was over 100 µM. The TGI is over 100 µM in experiment [7]; over 100 µM in experiment [8]; over 100 µM in experiment [12]; over 100 µM in experiment [10]; 71.4 µM in experiment [11].

Regarding `O=C1NC(=O)C2(CCCCCC2)N1`, the TGI in experiment [1], in experiment [2], in [3], in experiment [4], in experiment [5] and in experiment [6] was over 100 µM each time. Further, the TGI in experiment [7], in experiment [8], in [9], in experiment [10] and in [11] was over 100 µM throughout.

Consider `CCOC(=O)[C@@]12C[C@](/C=C/OC)(O[Si](C)(C)C)[C@@]13c1cc(OC)c(OC)cc1CCN3C(=O)C2O` (stereo partly drawn), for which the TGI in [1], in experiment [2], in experiment [3], in experiment [4], in [5] and in [6] was over 100 µM each time. Besides, the TGI in experiment [7], in experiment [8], in experiment [9], in experiment [10] and in experiment [11] was over 100 µM throughout.

`C[C@]12CC/C(=N\O)C=C1CC[C@@H]1[C@@H]2CC[C@]2(C)C(=N/O)/C(=C/c3ccc([N+](=O)[O-])cc3)C[C@@H]12`: the TGI is 12.5 µM in experiment [2]; over 100 µM in experiment [3]; 85 µM in experiment [4]; 6.41 µM in experiment [5]; over 100 µM in experiment [6]; 29.6 µM in experiment [7]. Besides, the TGI in [8], in [9], in experiment [10] and in [11] was over 100 µM in each case.

Take `COc1ccc(OCc2ccc3nc(-c4ccccc4)c(Cl)nc3c2)cc1`: the TGI in [1] was 31.6 µM; in [2] it was over 100 µM; in experiment [4], over 100 µM; in experiment [5] it was 51.4 µM; in experiment [6] it was over 100 µM; in [7] it was 37.9 µM. The TGI in experiment [8] was over 100 µM; in experiment [12] it was over 100 µM; in experiment [10], over 100 µM; in experiment [11], 42.3 µM.

With `CC1Oc2c(c(=O)oc3ccccc23)[C@@]1(C)CC1C[C@H](C)C(=O)O1` (stereo partly drawn), the TGI is over 100 µM in experiment [1]; over 100 µM in experiment [2]; over 100 µM in [3]; 45.9 µM in [4]; 38.1 µM in experiment [5]; over 100 µM in experiment [6]. The TGI in experiment [7] is over 100 µM; in experiment [8], 42.8 µM; in experiment [12], 56.2 µM; in experiment [10], over 100 µM; in [11], 64.2 µM.

Consider `COc1ccc2cc(C(=O)O)ccc2c1OC`, for which the TGI in experiment [1], in [2], in [3], in experiment [4], in [5] and in [6] was over 100 µM each time. The TGI in experiment [7], in experiment [8], in experiment [12], in [10] and in experiment [11] was over 100 µM throughout.

Turning to `CC1=C/C(=N\O)C(C(O)(C(F)(F)F)C(F)(F)F)C(C)(C)C1` (stereo not drawn), the TGI in experiment [1], in experiment [2], in [3], in experiment [4], in [5] and in [6] was over 10 µM throughout. Besides, the TGI in experiment [7], in experiment [8], in experiment [12], in [10] and in [11] was over 10 µM each time.

As for `O=c1ccn(C2OC(CO)C(O)C2[Se]c2ccccc2)c(=O)[nH]1` (stereo not drawn), the TGI in experiment [1], in experiment [2], in experiment [3], in [4], in experiment [5] and in experiment [6] was over 100 µM throughout. Besides, the TGI in experiment [7], in experiment [8], in [12], in experiment [10] and in [11] was over 100 µM each time.

For `CC(C)(C)Nc1noc(=O)n1C(C)(C)C`, the TGI in experiment [1], in [2], in [3], in experiment [4], in experiment [5] and in experiment [6] was over 100 µM each time. For the same compound, the TGI in experiment [7], in [8], in experiment [9], in experiment [10] and in [11] was over 100 µM each time.

As for `C[n+]1c(-c2ccc(/C=N/NC(=O)C(=O)N/N=C/c3ccc(-c4cn5ccsc5[n+]4C)cc3)cc2)cn2ccsc21`, the TGI in [1], in experiment [2], in experiment [4], in experiment [6], in experiment [7] and in experiment [8] was over 100 µM throughout. Moreover, the TGI in [12], in experiment [10] and in experiment [11] was over 100 µM in each case.

For the origin of these results see PubChem BioAssay (NCI).
